pIC50, pKd: −log10 of the molar value.
Tests used:
[1] = biological target: GDP-bound KRAS wild-type protein (Homo sapiens, UniProt P01116); test: Binding to KRAS by surface plasmon resonance (SPR), dissociation constant KD; details: Single Cycle Kinetics, 1:1 binding model
Summary of the method: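 Captured GDP-RAS (~100–300 RU) was exposed to increasing compound concentrations, 75 s per step, in running buffer with 10 µM GDP, 10 mM MgCl2 and 4% DMSO at pH 7.4.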

[2] = biological target: GDP-bound NRAS wild-type protein (Homo sapiens, UniProt P01111); test: Binding to NRAS by surface plasmon resonance (SPR), KD and KD ratio to KRAS; details: ratio of KD value for GDP-bound NRAS wild-type protein to KD value for KRAS (SPR)
Chain of GDP-bound NRAS wild-type protein (P01111 whole entry): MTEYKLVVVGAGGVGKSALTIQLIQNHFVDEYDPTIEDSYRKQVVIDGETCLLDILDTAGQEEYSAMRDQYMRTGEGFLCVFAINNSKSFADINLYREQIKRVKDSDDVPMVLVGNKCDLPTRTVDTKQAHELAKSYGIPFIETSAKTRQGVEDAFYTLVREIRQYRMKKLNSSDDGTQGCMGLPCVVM
Summary of the method: (§1)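 Recombinant RAS proteins bearing a biotinylated Avi tag and loaded with GDP served as the captured ligand, recaptured fresh every cycle. Binding responses were referenced to an uncoated surface and a buffer-only blank cycle. Dissociation constants were obtained by 1:1 model fitting at 30°C.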

HRAS wild-type protein = HRAS wild-type protein (Homo sapiens, UniProt P01112); test: Binding to HRAS by surface plasmon resonance (SPR), KD and KD ratio to KRAS; details: ratio of KD value for HRAS wild-type protein to KD value for KRAS (SPR)
Chain of HRAS wild-type protein (P01112 whole entry): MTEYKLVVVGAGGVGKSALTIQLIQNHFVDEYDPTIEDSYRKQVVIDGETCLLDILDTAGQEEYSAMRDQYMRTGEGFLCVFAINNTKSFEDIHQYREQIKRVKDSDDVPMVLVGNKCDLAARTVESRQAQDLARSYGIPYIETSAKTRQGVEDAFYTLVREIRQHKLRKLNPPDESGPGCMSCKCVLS
Summary of the method: as §1

[3] = tested on: human lung cancer strain NCI-H441; type: cell-based
Summary of the method: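 Signal came from […] measured per well once the reagent was added. Beforehand, cells were cultured at 37°C and 5% carbon dioxide on a compound series serially diluted in dimethyl sulfoxide.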

Chain of GDP-bound KRAS wild-type protein (P01116 1-188 isoform P01116-2): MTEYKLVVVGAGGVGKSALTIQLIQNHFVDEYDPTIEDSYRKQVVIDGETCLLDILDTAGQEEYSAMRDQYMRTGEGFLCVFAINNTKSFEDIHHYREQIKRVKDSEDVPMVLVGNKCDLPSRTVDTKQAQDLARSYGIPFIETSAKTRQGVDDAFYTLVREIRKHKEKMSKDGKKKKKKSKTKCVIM

SMILES	pKd [1]	pIC50 [3]	NRAS /KRAS [2]	HRAS /KRAS (HRAS wild-type protein)
CCCOC[C@H]1C(=O)N[C@@H]([C@@H](C)CC)C(=O)N(C)CC(=O)N(C)[C@H]2C/C=C\CCN(C2=O)[C@@H](Cc2ccc(C)cc2)C(=O)N(C)CC(=O)N[C@@H](CCc2cc(F)c(C(F)(F)F)c(F)c2)C(=O)N2C[C@H](OCC)C[C@H]2C(=O)NC2(CC(C)(C)C2)C(=O)N(C)[C@@H](C2CCCC2)C(=O)N(C)[C@H](C(=O)N(C)CC)CC(=O)N1C [PP1577]	9.77	8.17	B (a compound having 3 or more and less than 10 is denoted as B)	B (a compound having 3 or more and less than 10 is denoted as B)
CCCOC[C@H]1C(=O)N[C@@H]([C@@H](C)CC)C(=O)N(C)CC(=O)N(C)[C@H]2C/C=C\CCN(C2=O)[C@@H](Cc2ccc(C)cc2)C(=O)N(C)CC(=O)N[C@@H](CCc2cc(F)c(C(F)(F)F)c(F)c2)C(=O)N2C[C@H](OCC)C[C@H]2C(=O)NC2(CC(C)(C)C2)C(=O)N(C)[C@@H](C2CCCC2)C(=O)N(C)[C@H](C(=O)N(CC)CC)CC(=O)N1C [PP1578]	9.70	7.90	A (a compound having 10 or more and less than 20 is denoted as A)	A (a compound having 10 or more and less than 20 is denoted as A)
CCO[C@@H]1C[C@H]2C(=O)NC3(CC(C)(C)C3)C(=O)N(C)[C@@H](C3CCCC3)C(=O)N(C)[C@@H](C(C)C)CC(=O)N(C)[C@@H](CC3CC3)C(=O)N[C@@H]([C@@H](C)CC)C(=O)N(C)CC(=O)N(C)[C@H]3C/C=C\CCN(C3=O)[C@@H](Cc3ccc(C(F)(F)F)cc3)C(=O)N(C)CC(=O)N[C@@H](CCc3cc(F)c(C(F)(F)F)c(F)c3)C(=O)N2C1 [PP1594]	9.15	7.31	A (a compound having 10 or more and less than 20 is denoted as A)	A (a compound having 10 or more and less than 20 is denoted as A)
CCO[C@@H]1C[C@H]2C(=O)NC3(CCC3)C(=O)N(C)[C@@H](C(CC)CC)C(=O)N(C)[C@H](C3CCC3)CC(=O)N(C)[C@@H](CC3CC3)C(=O)N[C@@H]([C@@H](C)CC)C(=O)N(C)CC(=O)N(C)[C@H]3C/C=C\CCN(C3=O)[C@@H](Cc3ccc(C(F)(F)F)cc3)C(=O)N(C)CC(=O)N[C@@H](CCc3cc(F)c(C(F)(F)F)c(F)c3)C(=O)N2C1 [PP1636]	8.55	7.02	A (a compound having 10 or more and less than 20 is denoted as A)	A (a compound having 10 or more and less than 20 is denoted as A)
CCCN(C)C(=O)[C@@H]1CC(=O)N(C)[C@@H](CC)C(=O)N[C@@H]([C@@H](C)CC)C(=O)N(C)CC(=O)N(C)[C@H]2C/C=C\CCN(C2=O)[C@@H](Cc2ccc(C(F)(F)F)cc2)C(=O)N(C)CC(=O)N[C@@H](CCc2ccc(C(F)(F)F)c(OC)c2)C(=O)N2C[C@H](OCC)C[C@H]2C(=O)NC2(CC(C)(C)C2)C(=O)N(C)[C@@H](C2CCCC2)C(=O)N1C [PP1654]	10.01	8.60	A (a compound having 10 or more and less than 20 is denoted as A)	A (a compound having 10 or more and less than 20 is denoted as A)
CCO[C@@H]1C[C@H]2C(=O)NC3(CCC3)C(=O)N(C)[C@@H](C3CCCC3)C(=O)N(C)[C@H](C(=O)N(C)CC)CC(=O)N(C)[C@@H](CC3CCC3)C(=O)N[C@@H]([C@@H](C)CC)C(=O)N(C)CC(=O)N(C)[C@H]3C/C=C\CCN(C3=O)[C@@H](Cc3ccc(C(F)(F)F)cc3)C(=O)N(C)CC(=O)N[C@@H](CCc3cc(F)c(C(F)(F)F)c(F)c3)C(=O)N2C1 [PP1667]	10.09	8.70	A (a compound having 10 or more and less than 20 is denoted as A)	A (a compound having 10 or more and less than 20 is denoted as A)
CC[C@H](C)[C@@H]1NC(=O)[C@H](CC)N(C)C(=O)C[C@@H](C(=O)N(C)C)N(C)C(=O)[C@H](C2CCCC2)N(C)C(=O)C2(CCC2)N(C)C(=O)[C@@H]2CCCN2C(=O)[C@H](CCc2cc(F)c(C(F)(F)F)c(F)c2)NC(=O)CN(C)C(=O)[C@H](Cc2ccc(C)cc2)N2CC/C=C\C[C@@H](C2=O)N(C)C(=O)CN(C)C1=O [PP1782]	10.36	8.17	A (a compound having 10 or more and less than 20 is denoted as A)	B (a compound having 3 or more and less than 10 is denoted as B)
CC[C@H](C)[C@@H]1NC(=O)[C@H](C2CC2)N(C)C(=O)C[C@@H](C(=O)N(C)C)N(C)C(=O)[C@H](C2CCCC2)N(C)C(=O)C2(CCC2)N(C)C(=O)[C@@H]2C[C@@H](C)CN2C(=O)[C@H](CCc2cc(F)c(C(F)(F)F)c(F)c2)NC(=O)CN(C)C(=O)[C@H](Cc2ccc(C)cc2)N2CC/C=C\C[C@@H](C2=O)N(C)C(=O)CN(C)C1=O [PP1788]	10.20	8.21	B (a compound having 3 or more and less than 10 is denoted as B)	B (a compound having 3 or more and less than 10 is denoted as B)
CC[C@H](C)[C@@H]1NC(=O)[C@H](CC(C)C)N(C)C(=O)C[C@@H](C(=O)N(C)C)N(C)C(=O)[C@H](C2CCCC2)N(C)C(=O)C2(CCC2)N(C)C(=O)[C@@H]2CCCN2C(=O)[C@H](CCc2cc(F)c(C(F)(F)F)c(F)c2)NC(=O)CN(C)C(=O)[C@H](Cc2ccc(C)cc2)N2CC/C=C\C[C@@H](C2=O)N(C)C(=O)CN(C)C1=O [PP1791]	10.38	8.43	A (a compound having 10 or more and less than 20 is denoted as A)	A (a compound having 10 or more and less than 20 is denoted as A)
CC[C@H](C)[C@@H]1NC(=O)[C@H](CC2CC2)N(C)C(=O)C[C@@H](C(=O)N(C)C)N(C)C(=O)[C@H](C2CCCC2)N(C)C(=O)C2(CCC2)N(C)C(=O)[C@@H]2C[C@@H](C)CN2C(=O)[C@H](CCc2cc(F)c(C(F)(F)F)c(F)c2)NC(=O)CN(C)C(=O)[C@H](Cc2ccc(C)cc2)N2CC/C=C\C[C@@H](C2=O)N(C)C(=O)[C@@H]2CCCN2C1=O [PP1801]	9.68	7.89	A (a compound having 10 or more and less than 20 is denoted as A)	B (a compound having 3 or more and less than 10 is denoted as B)

Continued, in another order:

pKd [1]	pIC50 [3]	SMILES	NRAS /KRAS [2]	HRAS /KRAS (HRAS wild-type protein)
10.10	8.43	CCO[C@@H]1C[C@H]2C(=O)NC3(CCC3)C(=O)N(C)[C@@H](C3CCCC3)C(=O)N(C)[C@H](C(=O)N(C)CC)CC(=O)N(C)[C@@H](CC(F)(F)F)C(=O)N[C@@H]([C@@H](C)CC)C(=O)N(C)CC(=O)N(C)[C@H]3C/C=C\CCN(C3=O)[C@@H](Cc3ccc(C(F)(F)F)cc3)C(=O)N(C)CC(=O)N[C@@H](CCc3cc(F)c(C(F)(F)F)c(F)c3)C(=O)N2C1 [PP1701]	A (a compound having 10 or more and less than 20 is denoted as A)	A (a compound having 10 or more and less than 20 is denoted as A)
10.28	8.44	CCCC[C@H]1C(=O)N[C@@H]([C@@H](C)CC)C(=O)N(C)CC(=O)N(C)[C@H]2C/C=C\CCN(C2=O)[C@@H](Cc2ccc(C(F)(F)F)cc2)C(=O)N(C)CC(=O)N[C@@H](CCc2cc(F)c(C(F)(F)F)c(F)c2)C(=O)N2C[C@H](OCC)C[C@H]2C(=O)NC2(CC(F)(F)C2)C(=O)N(C)[C@@H](C2CCCC2)C(=O)N(C)[C@H](C(=O)N(C)C)CC(=O)N1C [PP1740]	A (a compound having 10 or more and less than 20 is denoted as A)	A (a compound having 10 or more and less than 20 is denoted as A)
10.15	8.05	CC[C@H](C)[C@@H]1NC(=O)[C@H](CC)N(C)C(=O)C[C@@H](C(=O)N(C)C)N(C)C(=O)[C@H](C2CCCC2)N(C)C(=O)C2(CCC2)N(C)C(=O)[C@@H]2C[C@@H](C)CN2C(=O)[C@H](CCc2cc(F)c(C(F)(F)F)c(F)c2)NC(=O)CN(C)C(=O)[C@H](Cc2ccc(C)cc2)N2CC/C=C\C[C@@H](C2=O)N(C)C(=O)CN(C)C1=O [PP1787]	A (a compound having 10 or more and less than 20 is denoted as A)	B (a compound having 3 or more and less than 10 is denoted as B)
10.22	8.06	CCC[C@H]1C(=O)N[C@@H]([C@@H](C)CC)C(=O)N(C)CC(=O)N(C)[C@H]2C/C=C\CCN(C2=O)[C@@H](Cc2ccc(C)cc2)C(=O)N(C)CC(=O)N[C@@H](CCc2cc(F)c(C(F)(F)F)c(F)c2)C(=O)N2CCC[C@H]2C(=O)N(C)C2(CCC2)C(=O)N(C)[C@@H](C2CCCC2)C(=O)N(C)[C@H](C(=O)N(C)C)CC(=O)N1C [PP1794]	A (a compound having 10 or more and less than 20 is denoted as A)	B (a compound having 3 or more and less than 10 is denoted as B)
10.51	8.52	CCO[C@@H]1C[C@H]2C(=O)N(C)C3(CCC3)C(=O)N(C)[C@@H](C3CCCC3)C(=O)N(C)[C@H](C(=O)N(C)C)CC(=O)N(C)[C@@H](CC3CC3)C(=O)N[C@@H]([C@@H](C)CC)C(=O)N(C)CC(=O)N(C)[C@H]3C/C=C\CCN(C3=O)[C@@H](Cc3ccc(C)cc3)C(=O)N(C)CC(=O)N[C@@H](CCc3cc(F)c(C(F)(F)F)c(F)c3)C(=O)N2C1 [PP1795]	A (a compound having 10 or more and less than 20 is denoted as A)	B (a compound having 3 or more and less than 10 is denoted as B)
10.29	8.19	CC[C@H](C)[C@@H]1NC(=O)[C@H](CC2CC2)N(C)C(=O)C[C@@H](C(=O)N(C)C)N(C)C(=O)[C@H](C2CCCC2)N(C)C(=O)C2(CCC2)N(C)C(=O)[C@@H]2C[C@@H](C)CN2C(=O)[C@H](CCc2cc(F)c(C(F)(F)F)c(F)c2)NC(=O)CN(C)C(=O)[C@H](Cc2ccc(C)cc2)N2CC/C=C\C[C@@H](C2=O)N(C)C(=O)CN(C)C1=O [PP1800]	A (a compound having 10 or more and less than 20 is denoted as A)	A (a compound having 10 or more and less than 20 is denoted as A)

— EP4603105A1, “PHARMACEUTICAL COMPOSITION CONTAINING CYCLIC COMPOUND HAVING SELECTIVE KRAS INHIBITORY EFFECT AGAINST HRAS AND NRAS” (CHUGAI SEIYAKU KABUSHIKI KAISHA, priority 2022, dated 2024)
